# Assay results reported in patent US5211944A, “Proanthocyanidin polymers having antiviral activity and methods of obtaining same” (Shaman Pharmaceuticals, Inc., priority 1991, dated 1993).
# Where “and” joins values, the source holds several entries; their conditions need not be identical. Equal values may be shown once. Read-outs that look alike come from different tables or passages of the source.
# Assays:
# Influenza A/NWS/33 virus [1] = conditions: for influenza inhibition (words): 75 mg/kg/day i.p.
# PIV-1 = assay: In vitro antiviral assay, inhibition of CPE, PIV-1
# [2] = test system: Respiratory syncytial virus (RSV); assay: microbe, parasite or virus in culture; assay type: cell-based; conditions: human respiratory syncytial virus
# Measles = assay: In vitro antiviral assay, inhibition of CPE, measles; assay type: cell-based, Measles virus; conditions: Measles morbillivirus, HEp-2, HEp2 cells, Table 1 experiments 1-2, read-out: ED50 (the source's name)
# [3] = Table 16; 75 mg/kg/day i.p. bid × 5; female
# RSV or influenza virus = conditions: cited from earlier work
# RSV A2 [4] = assay: RSV infection of cotton rats, intraperitoneal dosing, lung titer; assay type: in vivo, Hispid Cotton Rats; conditions: for % kill: versus control; for ED50: 3-day intraperitoneal dosing
# Experimental: Control animals received an equal volume of distilled water. […] All animals were killed on day 5. Lungs were removed and washed via transpleural lavage. The fluid collected was assessed for RSV titer in a microtiter assay using HEp2 cells.
# (§1) Tissue control wells contained medium, but no virus. […] Virus control wells were observed daily. […] In addition to visual CPE, inhibition of syncytia formation is used to confirm activity against RSV. Lung RSV titer logm was calculated as described by Dubovi et al., 1983; 1984.
# Parainfluenza virus 3 = assay: microbe, parasite or virus in culture; assay type: cell-based
# Adenovirus 7 = assay: In vitro antiviral assay, inhibition of CPE, adenovirus 7; assay type: cell-based; conditions: Human mastadenovirus B, HEp-2, HEp2 cells, Table 1 experiments 2-3, read-out: ED50 (the source's name)
# Adenovirus 5 = assay: In vitro antiviral assay, inhibition of CPE, adenovirus 5; assay type: cell-based; conditions: Human mastadenovirus C, HEp-2, HEp2 cells, Table 1 experiment 2, read-out: ED50 (the source's name)
# RSV A2 [5] = assay: RSV infection of cotton rats, oral dosing, lung titer; assay type: in vivo, Hispid Cotton Rats; conditions: for ED50: human respiratory syncytial virus, 72 h, 3-day oral dosing
# Experimental: as §1
# All animals were killed on day 5 and lung tissues were collected. Lungs were removed and washed via transpleural lavage. The fluid collected was assessed for RSV titer in a microtiter assay using HEp2 cells as described above.
# Influenza A = assay: microbe, parasite or virus in culture; assay type: cell-based; conditions: for EC50: Influenza A virus
# Influenza B = assay: microbe, parasite or virus in culture; assay type: cell-based; conditions: for ED50: FLU-B; for EC50: Influenza B virus
# Influenza A/NWS/33 virus [6] = conditions: i.p. once daily for 8 days
# Influenza viruses = conditions: cited from earlier work
# [7] = test system: RNA-directed DNA polymerase; conditions: Sethi, 1977; cited from earlier work
# [8] = Persinos et al., 1979; cited from earlier work
# [9] = 75 mg/kg/day i.p. bid × 5, days 2, 4, 6, 8
# [10] = 75 mg/kg/day i.p. bid × 5 from 4 hr post-virus, female
smiles,measurement,setting,value
"NC(=O)c1ncn([C@@H]2O[C@H](CO)[C@@H](O)[C@H]2O)n1 [Ribavirin, 1-β-D-ribofuranosyl-1,2,4-triazole 3-carboxamide]",influenza inhibition (words),Influenza A/NWS/33 virus [1],inhibitory to the virus infection
same,Mean SaO2 %,"Influenza A/NWS/33 virus [1]; 75 mg/kg/day i.p. bid × 5, daily for 10 days",81%
same,Mean Score (lung),Influenza A/NWS/33 virus [1]; [9],0.3
same,Mean Virus Titer (log10),Influenza A/NWS/33 virus [1]; [9],3.9 log10
same,"Infected, Treated Surv/Total",Influenza A/NWS/33 virus [1]; [10],10/10
same,MST,Influenza A/NWS/33 virus [1]; [10],> 21.0 days
same,"Infected, Treated Surv/Total","Influenza A/NWS/33 virus [1]; 75 mg/kg/day i.p. bid × 5 from 4 hr post-virus, female, listed as ribavirin","All infected, ribavirin-treated mice survived the infection"
same,influenza inhibition (words),Influenza A/NWS/33 virus [1]; listed as ribavirin,significant influenza inhibition
same,CC50,"in vitro; ID50, FLU-A, B-Japan experiment",78 µg/mL
same,CC50,"in vitro; ID50, FLU-A, B-NWS/33 experiment",100 µg/mL
same,CC50,"in vitro; ID50, FLU-A, B-Portchalm experiment",68 µg/mL
same,CC50,"in vitro; ID50, FLU-B, B-HongKong experiment",80 µg/mL
same,CC50,"in vitro; ID50, MEAN, FLU-A experiments, mean",750 µg/mL
same,CC50,"in vitro; ID50, MEAN, FLU-B experiments, mean",847 µg/mL
same,CC50,"in vitro; ID50, MEAN, RSV experiments, mean",946 µg/mL
same,CC50,"in vitro; ID50, PIV-1 experiment",1000 µg/mL
same,CC50,"in vitro; ID50, PIV-3 experiment",1000 µg/mL
same,CC50,"in vitro; ID50, RSV A-Tracy experiment",1000 µg/mL
same,CC50,"in vitro; ID50, RSV B-18537 experiment",1000 µg/mL
same,CC50,"in vitro; ID50, RSV B-46791 experiment",1000 µg/mL
same,CC50,"in vitro; ID50, RSV B-47063 experiment",1000 µg/mL
same,EC50,"PIV-1; HEp-2, read-out: ED50, MEAN, PIV-1, mean",10.7 µg/mL
same,EC50,"PIV-1; HEp-2, read-out: ED50, PIV-1",12 µg/mL
same,ED50,PIV-1; PIV-1,8.0 µg/mL
same,EC50,"[2]; HEp-2, RSV B-46791, read-out: ED50 (the source's name)",8 µg/mL
same,EC50,"[2]; HEp-2, RSV B-47063, read-out: ED50 (the source's name)",12 µg/mL
same,EC50,"[2]; HEp-2, RSV, mean of all strains, read-out: ED50, MEAN",11.9 µg/mL
same,EC50,Measles,31.3 µg/mL
same,Host Wt. Change,[3],0.6 g
same,Toxicity controls Surv/Total,[3],5/5
same,severity of illness and amount of virus shed,RSV or influenza virus; acute respiratory infections,reduce the severity of illness and amount of virus shed
same,teratogenicity,RSV or influenza virus; in animals,teratogenic in animals
same,"Lung titer (RSV titer log 10/g lung, Mean ± S.D.)",RSV A2 [4]; 10 mg/kg i.p.,4.5 ± 0.2 log 10 /g lung
same,"Lung titer (antilog, in parentheses)",RSV A2 [4]; 10 mg/kg i.p.,"31,622"
same,% kill,RSV A2 [4]; 10 mg/kg i.p.,0%
same,"Lung titer (RSV titer log 10/g lung, Mean ± S.D.)",RSV A2 [4]; 30 mg/kg i.p.,4.0 ± 0.3 log 10 /g lung
same,"Lung titer (antilog, in parentheses)",RSV A2 [4]; 30 mg/kg i.p.,"10,000"
same,% kill,RSV A2 [4]; 30 mg/kg i.p.,68.4%
same,reduction in lung titers,RSV A2 [4]; 40 mg/kg i.p.,50%
same,"Lung titer (RSV titer log 10/g lung, Mean ± S.D.)",RSV A2 [4]; 90 mg/kg i.p.,2.8 ± 0.3 log 10 /g lung
same,"Lung titer (antilog, in parentheses)",RSV A2 [4]; 90 mg/kg i.p.,631
same,% kill,RSV A2 [4]; 90 mg/kg i.p.,98%
same,ED50,RSV A2 [4]; individual experiments,30 mg/kg and 50 mg/kg
same,ED50,"RSV A2 [4]; human respiratory syncytial virus, ip, 72 h, individual experiments, read-out: ED50",40 mg/kg
same,ED50,"RSV A2 [4]; human respiratory syncytial virus, ip, 72 h, mean, read-out: ED50, Mean ± S.E.M.",40 ± 6 mg/kg
same,EC50,"Parainfluenza virus 3; HEp-2, PIV-3, mean, read-out: ED50, MEAN",15.4 µg/mL
same,EC50,"Parainfluenza virus 3; HEp-2, Parainfluenza virus (3), HEp2 cells, Table 1 experiments 1-3, read-out: ED50 (the source's name)",15.6 µg/mL
same,ED50,Parainfluenza virus 3; PIV-3,16.0 µg/mL
same,ED50,"Parainfluenza virus 3; Parainfluenza virus (3), HEp2 cells, Table 1 experiments 1-3",15.7 µg/mL and 12 µg/mL
same,EC50,Adenovirus 7,> 1000 µg/mL
same,EC50,Adenovirus 5,> 1000 µg/mL
same,"Lung titer (RSV titer log 10/g lung, Mean ± S.D.)",RSV A2 [5]; 40 mg/kg oral,3.30 ± 0.5 log 10 /g lung
same,"Lung titer (antilog, in parentheses)",RSV A2 [5]; 40 mg/kg oral,"1,995"
same,reduction in lung titers,RSV A2 [5]; 40 mg/kg oral,> 90%
same,% kill,"RSV A2 [5]; 40 mg/kg oral, versus control",80%
same,ED50,"RSV A2 [5]; individual experiments, read-out: ED50",> 90 mg/kg
same,ED50,"RSV A2 [5]; mean, read-out: ED50, Mean ± SEM",> 90 mg/kg
same,EC50,"Influenza A; HEp-2, FLU-A, A-Leningrad, read-out: ED50 (the source's name)",6 µg/mL
same,EC50,"Influenza A; HEp-2, FLU-A, A-Shanghai, read-out: ED50 (the source's name)",6 µg/mL
same,EC50,"Influenza A; HEp-2, FLU-A, B-Japan, read-out: ED50 (the source's name)",1.6 µg/mL
same,EC50,"Influenza A; HEp-2, FLU-A, B-NWS/33, read-out: ED50 (the source's name)",1 µg/mL
same,EC50,"Influenza A; HEp-2, FLU-A, B-Portchalm, read-out: ED50 (the source's name)",1 µg/mL
same,EC50,"Influenza A; HEp-2, FLU-A, mean of all strains, read-out: ED50, MEAN",8.2 µg/mL
same,EC50,"Influenza A; HEp-2, Influenza A, HEp2 cells, Table 1 experiments 1-3, read-out: ED50 (the source's name)",15 µg/mL
same,ED50,"Influenza A; Influenza A, HEp2 cells, Table 1 experiments 1-3",14.3 µg/mL and 14 µg/mL
same,ED50,Influenza B; B-USSR,7.8 µg/mL
same,ED50,Influenza B; B-Yamagata,8.0 µg/mL
same,EC50,"Influenza B; HEp-2, FLU-B, B-HongKong, read-out: ED50 (the source's name)",1 µg/mL
same,EC50,"Influenza B; HEp-2, FLU-B, B-USSR, read-out: ED50 (the source's name)",4 µg/mL
same,EC50,"Influenza B; HEp-2, FLU-B, B-Yamagata, read-out: ED50 (the source's name)",6 µg/mL
same,EC50,"Influenza B; HEp-2, FLU-B, mean of all strains, read-out: ED50, MEAN",5.8 µg/mL
same,EC50,"Influenza B; HEp-2, Influenza B, HEp2 cells, Table 1 experiments 1-2, read-out: ED50 (the source's name)",18 µg/mL
"Cl.NC12CC3CC(CC(C3)C1)C2 [Amantadine, 1-Adamantanamine HCL]",inhibition of influenza A infection (overall words),Influenza A/NWS/33 virus [6],ineffective
same,central nervous system side effects,Influenza viruses,causes some central nervous system side effects
same,shortening of fever duration and respiratory symptoms,Influenza viruses,about 50%
COc1ccc2c(=O)oc3c(OC)cc(CCN(C)C)c4c(=O)oc1c2c34 [taspine],RNA-directed DNA polymerase activity,[7],inhibit RNA-directed DNA polymerase activity
same,anti-inflammatory activity,[8],exhibits anti-inflammatory activity
